The results in this text go back to US20080170990A1, “Methods for Myocardial Imaging in Patients Having a History of Pulmonary Disease” (CV THERAPEUTICS, INC., priority 2006, published 2008).

One data set deals with awake rats. The data set can be described thus: Sympathoexcitation: heart rate, blood pressure and plasma catecholamines after i.v. bolus (Example 5). The format is in vivo, rat. Conditions: in the presence of hexamethonium 10 mg/kg, n=5. The protocol:
CVT (0.31 μg/kg-50 μg/kg) was given as a rapid i.v. bolus to awake rats and heart rate (HR) and blood pressure (BP) were monitored. Regadenoson caused an increase in BP and systolic pressure (SP) at lower doses while at higher doses there was a decrease in BP and SP. […] The increase in HR was evident at the lowest dose of CVT at which there was no appreciable decrease in BP. ZM241385 (30 μg/kg, N=5), an A2A adenosine receptor antagonist, attenuated the decrease in BP (Regadenoson: 14±3%, ZM: 1±1%) and the increase in HR (CVT: 27±3%, ZM: 18±3%) caused by Regadenoson. Pretreatment with metoprolol (MET, 1 mg/kg, n=5), a beta-blocker, attenuated the increase in HR (CVT: 27±3%, MET: 15±2%), but had no effect on hypotension caused by Regadenoson. In the presence of hexamethonium (HEX, 10 mg/kg, n=5), a ganglionic blocker, the tachycardia was prevented (CVT: 27±3%, HEX: −1±2%), but BP was further reduced (CVT: −11±2%, HEX: −49±5%).

For another data set, the system named is COPD patients. As to conditions: both, human, in vivo. An excerpt: COPD patients were selected from two phase III randomized, triple-blind, placebo-controlled, multicenter studies (N=2,015) designed to test the strength of agreement for reversible cardiac defects between ADO and REG. There were 35 patients in the ADO group and 69 in the Regadenoson group. Age and gender were similar between ADO (68=11 yrs; 77% male) and Regadenoson group (68±11 yrs; 81% male). Of the 35 patients, 5 suffered (14%) cardiac symptoms in the ADO group vs 3/69 (4%) in the Regadenoson group (p=0.12); 14/35 (40%) in the ADO vs. 20/69 (29%) in the Regadenoson group resorted respiratory symptoms (p=0.28). Angina, occurrence of second degree AV block, acute pulmonary oedema and ronchi were higher in ADO group; nausea, GI discomfort and headache occurred more often in the Regadenoson group.

For data set [1], the system named is subjects undergoing stress/rest MPI. The data set can be described thus: Stress/rest SPECT myocardial perfusion imaging, adenosine vs Regadenoson (Example 6). As to conditions: SPECT MPI, 17-segment model; p=n.s. The format is in vivo, human. The protocol:
To determine the ability of Regadenoson to produce coronary hyperemia and accurately detect CAD, 35 subjects (26 men, 9 women; 67±10 years) underwent both A and Regadenoson stress/rest MPI, with 10.0±9.1 days between studies. […] Regadenoson [400 mcg (n=18), 500 mcg (n=17)] was administered as an IV bolus immediately followed by a saline flush, and then a Tc-99m radiopharmaceutical [sestamibi (n=34), tetrofosmin (n=1)]. SPECT images were uniformly processed, intermixed with control studies (normal and fixed-only defects), and interpreted by three observers in a blinded fashion using a 17-segment model. Quantitative analysis was also performed using 4D MSPECT. In addition to three separate readings, a consensus interpretation was performed and then a direct, same-screen comparison of A and REGADENASON images undertaken to determine relative differences, using 5 regions per study.

Data set [2] deals with patients undergoing a clinically indicated coronary catheterization. The data set can be described thus: Coronary blood flow velocity (CBFv) by Doppler flow wire after IV bolus, open label study (Example 1). Type of data set: in vivo, human. Conditions: 18 μg intracoronary (IC) Ado; mean ±SD. The protocol:
The purpose of this open label study was to determine the magnitude and duration of effect of Regadenoson (10-500 μg) on CBFv in humans.
Patients undergoing a clinically indicated coronary catheterization with no more than a 70% stenosis in any coronary artery and no more than a 50% stenosis of the study vessel had CBFv determined by Doppler flow wire. Study subjects were selected after measuring baseline and peak CBFv after an intracoronary (IC) injection of 18 μg of Ado. Twenty-three patients, who were identified as meeting the study criteria of having a peak to baseline CBFv ration of ≧2.5 in response to Adenosine, received a rapid (≦10 sec) peripheral IV bolus of Regadenoson; Doppler signals were stable and interpretable over the time-course of the increase in CBFv in 17 patients.

On to `C[N+](C)(C)CCCCCC[N+](C)(C)C` [hexamethonium, reference compound], for which, in the data set with awake rats, the “BP change caused by Regadenoson” value is given as −49±5% and the “HR change (tachycardia) caused by Regadenoson” value was −1±2%.

With `Nc1ncnc2c1ncn2[C@@H]1O[C@H](CO)[C@@H](O)[C@H]1O` [ADO, adenosine, reference compound], in the data set on COPD patients, the “patients with cardiac symptoms” value is given as 14%; the “patients with cardiac symptoms, number” value came to 5; the “patients with respiratory symptoms” value is on record as 40%; the “patients with respiratory symptoms, number” value is 14/35. The “summed score following stress, visual analysis” value in data set [1] stood at 133.9±1.5. The “peak to baseline CBFv ratio” value in data set [2] was 3.2±0.5.
